pKd: −log10 of the molar value.
Assays:
Assay type in all cases: ADME
Albumin [1] = target: T1, Albumin (Homo sapiens, UniProt P02768); test: Binding affinity to human serum albumin by PAMPA method
Albumin [2] = target: T1, Albumin; test: Binding affinity to 300 uM human serum albumin at 10 uM by PAMPA method
Albumin [3] = target: T1, Albumin; test: Binding affinity to 100 uM human serum albumin at 50 uM by PAMPA method
Albumin [4] = target: T1, Albumin; test: Binding affinity to 100 uM human serum albumin at 10 uM by PAMPA method
Albumin [5] = target: T1, Albumin; test: Binding affinity to 50 uM human serum albumin at 10 uM by PAMPA method
Albumin [6] = target: T1, Albumin; test: Binding affinity to 600 uM human serum albumin at 10 uM by PAMPA method

T1 sequence (P02768 whole entry): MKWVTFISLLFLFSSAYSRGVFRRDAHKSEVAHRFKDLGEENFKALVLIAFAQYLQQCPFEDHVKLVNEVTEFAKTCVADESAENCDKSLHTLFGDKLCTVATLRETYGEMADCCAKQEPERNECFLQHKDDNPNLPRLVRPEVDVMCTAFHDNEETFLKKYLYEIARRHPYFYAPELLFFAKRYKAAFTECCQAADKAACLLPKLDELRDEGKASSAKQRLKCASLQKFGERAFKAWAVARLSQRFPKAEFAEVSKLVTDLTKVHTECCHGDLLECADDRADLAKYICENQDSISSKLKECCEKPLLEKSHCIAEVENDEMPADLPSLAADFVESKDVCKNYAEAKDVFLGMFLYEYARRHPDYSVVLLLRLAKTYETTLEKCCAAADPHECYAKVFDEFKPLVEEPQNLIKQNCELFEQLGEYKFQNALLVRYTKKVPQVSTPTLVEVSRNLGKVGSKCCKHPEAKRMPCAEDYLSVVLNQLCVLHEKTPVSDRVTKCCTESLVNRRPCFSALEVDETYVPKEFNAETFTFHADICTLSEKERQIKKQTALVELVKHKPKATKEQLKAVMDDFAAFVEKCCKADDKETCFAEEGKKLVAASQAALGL

pKd (Albumin [1])	pKd (Albumin [2])	pKd (Albumin [3])	pKd (Albumin [4])	pKd (Albumin [5])	pKd (Albumin [6])	Structure (SMILES)
3.07						CNCCCN1c2ccccc2CCc2ccccc21 [DESIPRAMINE]
3.36	3.22	3.36	3.18	3.45	3.20	CC(C)NCC(O)COc1cccc2ccccc12 (configuration not stated) [PROPRANOLOL]

Reference: ChEMBL document CHEMBL1144698, “New approach to measure protein binding based on a parallel artificial membrane assay and human serum albumin” (J Med Chem, 2008)
